20 molecules from patent US4632932A, “Antimycotic agents” (Bayer Aktiengesellschaft, priority 1982, dated 1986) can be followed below.

In one assay the test system is Trichophyton mentagr. Nature of the assay: Antimycotic in vitro activity, series dilution test (MIC), Trichophyton mentagr. The note with it: Sabourand's milieu d'epreuve, 20° C., 96 hours. The class given is cell-based. Also on record: unit not given here. As to the method:
(§1) Description of the experiment:
(§2) The in vitro tests were carried out in a series dilution test with germ inocula of an average of 5×10^4 germs/ml of substrate. The nutrient medium was (a) for dermatophytes and moulds: Sabourand's milieu d'epreuve and (b) for yeasts: meat extract/glucose broth.
(§3) The incubation temperature was 20° C. and the duration of incubation was 24 to 96 hours in the case of yeasts and 96 hours in the case of dermatophytes and moulds.

The next assay deals with Candida albicans. Nature of the assay: Antimycotic in vitro activity, series dilution test (MIC), Candida albicans. The class given is cell-based. The note with it: meat extract/glucose broth, 20° C., 24 to 96 hours. Also on record: unit not given here. As to the method: as §1, §2, §3
Another assay deals with Torulopsis glabrata. Nature of the assay: Antimycotic in vitro activity, series dilution test (MIC), Torulopsis glabrata. More on the design: unit not given here. The note with it: meat extract/glucose broth, 20° C., 24 to 96 hours. The class given is cell-based. The procedure: as §1, §2, §3
In the next assay the test system is Aspergillus fumigatus. Description: Antimycotic in vitro activity, series dilution test (MIC), Aspergillus fumigatus. Format: cell-based. More on the design: unit not given here. The settings on record: Sabourand's milieu d'epreuve, 20° C., 96 hours. The procedure:
as §1, §2, §3

The subject of the next assay is Microsporum canis. Description: Antimycotic in vitro activity, series dilution test (MIC), Microsporum canis. Also on record: unit not given here. The class given is cell-based. The settings on record: Sabourand's milieu d'epreuve, 20° C., 96 hours. As to the method: as §1, §2, §3
Assay [1] concerns dermatophytes, moulds and yeasts. Description: Antimycotic in vitro activity, series dilution test, overall comparison. The class given is cell-based. As to the method: as §1, §2, §3
Another assay deals with Candida cells. Nature of the assay: Antimycotic in vivo activity (oral) in candidosis of mice. Also on record: species or system Mice of the SPF-CF1 type. The settings on record: 50-100 mg/kg. As to the method:
Description of the experiment
Mice of the SPF-CF1 type were infected intravenously with 1-2×10^6 logarithmically growing Candida cells, which are suspended in physiological sodium chloride solution. The animals were treated orally one hour before and seven hours after the infection, with, in each case, 50-100 mg/kg of body weight of the formulations.
Untreated animals died 3 to 6 days after infection. The survival rate on the 6th day after infection was about 5% in the case of untreated control animals.

Assay [2] concerns trichophyton of mentagrophytes. Nature of the assay: Antimicrobial in vivo activity (local) in the model of experimental guinea-pig trichophytosis. The settings on record: once daily, 15% strength solution.

Some results are limits rather than exact numbers.

For the molecule “1-(2-methylphenoxy)-3,3-dimethyl-2-(1,2,4-triazol-1-yl-methyl)-2-butanol [(C)]”, the MIC values in the assay with Trichophyton mentagr. is recorded as 32; in the assay with Candida albicans it was 32; against Torulopsis glabrata, > 64; in the assay on Aspergillus fumigatus, > 64.

Regarding “1-(2-methylphenoxy)-3,3-dimethyl-2-(imidazol-1-yl-methyl)-2-butanol [(B)]”, the MIC values in the assay with Trichophyton mentagr. was 4; against Microsporum canis, 4; against Candida albicans, 32; with Torulopsis glabrata, > 64; in the assay on Aspergillus fumigatus, 32.

Turning to `CC(C)(C1OCCO1)C(O)(Cn1cncn1)c1ccc(Cl)cc1` (stereo not shown) [Example 3, 3-(1,3-dioxolan-2-yl)-2-(4-chlorophenyl)-3-methyl-1-(1,2,4-triazol-1-yl)-butan-2-ol], the “antimycotic action in vitro compared with compounds (A), (B), (C) and (D)” value in assay [1] was “better antimycotic action”. In addition, in the assay with Candida cells, the “action compared with compounds (A), (B), (C) and (D)” value (shortened to “action compared with compounds”) is given as “better action”.

As to `CC(C)(C1OCCO1)C(O)(CCc1ccc(Cl)cc1Cl)Cn1cncn1` (stereo not shown) [Example 5, 1-(2,4-dichlorophenyl)-4-(1,3-dioxolan-2-yl)-4-methyl-3-(1,2,4-triazol-1-yl-methyl)-pentan-3-ol naphthalene-1,5-disulphonate], the “antimycotic action in vitro compared with compounds (A), (B), (C) and (D)” value in assay [1] is listed as “better antimycotic action”.

Consider `CC(C)(C1OCCO1)C(O)(CCc1ccc(Cl)cc1)Cn1cncn1` (stereo not shown) [Example 7], for which, in assay [1], the “antimycotic action in vitro compared with compounds (A), (B), (C) and (D)” value is given as “better antimycotic action”. In addition, the “action compared with compounds” value in the assay on Candida cells is recorded as “better action”. Further, in assay [2], the “action (statement in words)” value is “an action or a good action”.

Regarding `CC1(C(O)(CCc2ccc(Cl)cc2Cl)Cn2cncn2)COCOC1` (stereo not shown) [Example 8], in assay [1], the “antimycotic action in vitro compared with compounds (A), (B), (C) and (D)” value is recorded as “better antimycotic action”. Moreover, the “action compared with compounds” value with Candida cells is “better action”. Further, the “action (statement in words)” value in assay [2] is recorded as “an action or a good action”.

Take `CC1(C(O)(CCc2ccc(Cl)cc2)Cn2cncn2)COCOC1` (stereo not shown) [Example 9]: the “antimycotic action in vitro compared with compounds (A), (B), (C) and (D)” value in assay [1] is given as “better antimycotic action”. Moreover, the “action compared with compounds” value in the assay with Candida cells is listed as “better action”. The “action (statement in words)” value in assay [2] is “an action or a good action”.

Take `CC(C)(C1OCCO1)C(O)(C=Cc1ccc(Cl)cc1)Cn1cncn1` (stereo not shown) [Example 10]: the “antimycotic action in vitro compared with compounds (A), (B), (C) and (D)” value in assay [1] was “better antimycotic action”. Further, in the assay on Candida cells, the “action compared with compounds” value is recorded as “better action”. Besides, the “action (statement in words)” value in assay [2] was “an action or a good action”.

For `CC(C)(C1OCCO1)C(O)(C=Cc1ccc(Cl)cc1Cl)Cn1cncn1` (stereo not shown) [Example 11], in assay [1], the “antimycotic action in vitro compared with compounds (A), (B), (C) and (D)” value was “better antimycotic action”.

Turning to `CC1(C(O)(C=Cc2ccc(Cl)cc2)Cn2cncn2)COCOC1` (stereo not shown) [Example 12], the “antimycotic action in vitro compared with compounds (A), (B), (C) and (D)” value in assay [1] is reported as “better antimycotic action”.

With `CC1(C(O)(C=Cc2ccc(Cl)cc2)Cn2cncn2)COCOC1` (stereo not shown) [Example 13], the “antimycotic action in vitro compared with compounds (A), (B), (C) and (D)” value in assay [1] is “better antimycotic action”.

In the case of `CC(C)(C1OCCO1)C(O)(COc1ccc(-c2ccccc2)cc1)Cn1cncn1` (stereo not shown) [Example 14], the “antimycotic action in vitro compared with compounds (A), (B), (C) and (D)” value in assay [1] was “better antimycotic action”. In addition, the “action compared with compounds” value in the assay with Candida cells is “better action”. Moreover, in assay [2], the “action (statement in words)” value is listed as “an action or a good action”.

Regarding `CC(C)(C1OCCO1)C(O)(COc1ccc(Cl)cc1)Cn1cncn1` (stereo not shown) [Example 15], the “antimycotic action in vitro compared with compounds (A), (B), (C) and (D)” value in assay [1] is listed as “better antimycotic action”. For the same molecule, the “action compared with compounds” value in the assay on Candida cells was “better action”.

Take `CC1(C(O)(COc2ccc(Cl)cc2)Cn2cncn2)COCOC1` (stereo not shown) [Example 16]: the “antimycotic action in vitro compared with compounds (A), (B), (C) and (D)” value in assay [1] is “better antimycotic action”. The “action compared with compounds” value in the assay on Candida cells is on record as “better action”.

Consider `CC(C)(C1OCCO1)C(O)(CCc1ccc(Cl)cc1)Cn1ccnc1` (stereo not shown) [Example 19], for which the “antimycotic action in vitro compared with compounds (A), (B), (C) and (D)” value in assay [1] was “better antimycotic action”. For the same molecule, in the assay with Candida cells, the “action compared with compounds” value is given as “better action”. The “action (statement in words)” value in assay [2] is listed as “an action or a good action”.

For the molecule `CC(C)(C1OCCO1)C(O)(CCc1ccc(Cl)cc1Cl)Cn1ccnc1` (stereo not shown) [Example 20], the “antimycotic action in vitro compared with compounds (A), (B), (C) and (D)” value in assay [1] is “better antimycotic action”. The “action compared with compounds” value in the assay with Candida cells is “better action”. Further, the “action (statement in words)” value in assay [2] was “an action or a good action”.

`CC1(C(O)(CCc2ccc(Cl)cc2Cl)Cn2ccnc2)COCOC1` (stereo not shown) [Example 21]: the “antimycotic action in vitro compared with compounds (A), (B), (C) and (D)” value in assay [1] is on record as “better antimycotic action”. Moreover, the “action compared with compounds” value in the assay on Candida cells was “better action”. Also, the “action (statement in words)” value in assay [2] is “an action or a good action”.

For the molecule `CC1(C(O)(CCc2ccc(Cl)cc2)Cn2ccnc2)COCOC1` (stereo not shown) [Example 22], the “action compared with compounds” value in the assay on Candida cells was “better action”. In addition, the “action (statement in words)” value in assay [2] is listed as “an action or a good action”.

As for `CC(C)(C1OCCO1)C(O)(C=Cc1ccc(Cl)cc1)Cn1ccnc1` (stereo not shown) [Example 23], the “antimycotic action in vitro compared with compounds (A), (B), (C) and (D)” value in assay [1] is “better antimycotic action”. In addition, the “action compared with compounds” value with Candida cells was “better action”. Also, the “action (statement in words)” value in assay [2] is recorded as “an action or a good action”.

For `CC1(C(O)(COc2ccc(Cl)cc2)Cn2ccnc2)COCOC1` (stereo not shown) [Example 26], in the assay with Candida cells, the “action compared with compounds” value is on record as “better action”.
